Source: PubChem BioAssay AID602296 (Broad Institute, 2012)
Inconclusive results are not listed. The source made the active and inactive calls.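 Rule for the calls: active = fitted activation curve crossing 40% at a concentration no higher than the sample's top valid tested dose; inconclusive = flat fitted curve at 30% to 70% activation, or poor curve fit; inactive = signal decrease, flat curve within 30%, or the rest.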

System: NIH3T3-HGL HSF-1 response element luciferase, 48 h
Assay: sustained heat shock response element induction – cell-based, mouse, luciferase, cherry-pick, dose, confirmation (AID 602296);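 note: test compounds applied by themselves with no MG132 co-treatment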

Compound | AC40
N#CCCn1cc(C=C(C#N)C#N)c(-c2ccc(-c3ccccc3)cc2)n1 | > 12 µM (inactive)
Oc1ccc(NC(=S)Nc2ccccc2)cc1 | > 26 µM (inactive)
CCN(CCNC(=O)CN1CCN(Cc2ccc(Cl)cc2)C1=O)c1ccccc1 | 20.9 µM
CC(CC#CCN1CCOCC1)OCCC#N (stereo not given) | > 26 µM (inactive)
c1ccc2c(Nc3nnc(-c4ccncc4)s3)cccc2c1 | 1.24 µM
Cc1[nH]nc2c1C(c1cc(Br)cs1)C(C#N)=C(N)O2 (stereo not given) | 12 µM
CC(C)OC(=O)c1ccc(COc2ccc3ccc(=O)oc3c2)o1 | 3.16 µM
CC(=O)Nc1nnc(SCC(=O)c2ccc(F)cc2)s1 | 17.4 µM
O=c1[nH]c(N2CCN(c3ccccc3)CC2)nc2c1CCC2 | > 26 µM (inactive)
Cc1cccc(N2CCN(C(=O)CSCc3c(C)noc3C)CC2)c1C | 20.1 µM
Cn1c(Cn2nnc3ccccc32)nnc1SCC(=O)c1ccccc1F | 20.6 µM
Cc1ccc(NC(=O)c2cc3c(=O)oc4ccccc4c3s2)nc1 | > 26 µM (inactive)
CCN(CC)S(=O)(=O)c1ccc(C(=O)NN(C)C2=NS(=O)(=O)c3ccccc32)cc1 | > 26 µM (inactive)
CCCc1nc(SCC(=O)Nc2cc(C)on2)c2ccccc2n1 | > 26 µM (inactive)
Cc1ccc(-c2c3c(=O)n(C)c(=O)n(C)c3cn2-n2cnnc2)cc1 | 15.1 µM
O=C(/C=C/Sc1ccccc1)c1ccc(Cl)cc1 | 4.33 µM
Cc1cc(-c2nnc(CCC(=O)N(C)Cc3cccc4ccccc34)o2)no1 | 12 µM
Cc1noc2ncnc(Sc3ccc(Br)cc3)c12 | > 26 µM (inactive)
Cc1ccc(C(=O)CNc2ccc(Cl)cc2)cc1 | > 26 µM (inactive)
CCc1nnc(N/N=C/c2ccccc2Cl)n1N | 21.9 µM
O=C1c2ccccc2C(=O)N1CC(O)COc1ccc(Br)cc1 (stereo not given) | 13.7 µM
O=C(CC12CCC(CC1)C2)NCc1ccc2c(c1)OCO2 | > 26 µM (inactive)
S=c1sc2c(Cl)ncnc2n1-c1ccccc1 | > 12 µM (inactive)

Compound | AC40
CCOC(=O)/C=C/C(=O)N1CCc2ccccc21 | > 26 µM (inactive)
c1ccc(CCc2ccncc2)cc1 | > 26 µM (inactive)
CC(C)(C)c1cc(NC(=O)CCSc2nnc3ccccn23)cc(C(C)(C)C)c1 | > 26 µM (inactive)
O=C1CCC(/C=C/c2ccccc2)=NN1 | > 26 µM (inactive)
CCN(C(=O)c1cc2c(=O)[nH]c3ccc(C)cc3c2s1)c1ccccc1F | > 26 µM (inactive)
CCN(CC)C(=O)CSc1ncnc2sc(C)c(C)c12 | > 26 µM (inactive)
COc1ccc(-c2nc3scc(-c4ccccc4)n3n2)cc1 | 3.34 µM
CCN(/N=C/C=C/c1ccccc1)c1cc(=O)n(C)c(=O)[nH]1 | > 26 µM (inactive)
O=C1/C(=C\c2ccc(Br)o2)Cc2ccccc21 | 10.7 µM
c1ccc(COc2ccccc2CNC2CCCC2)cc1 | > 26 µM (inactive)
COc1ccc(C(=O)Cn2c(C(=O)/C=C/c3ccccc3)nc3ccccc32)cc1 | 2.39 µM
C/C(CC(=O)Nc1cccc2c1CCCC2)=N\NC(=O)COc1ccccc1 | > 26 µM (inactive)
COc1ccc2nc(SC)c(C#N)cc2c1 | > 26 µM (inactive)
CCOC(=O)c1c(C)n(-c2ccc(C)cc2)c2c(CC(C)=O)c(Br)c(OC)c(O)c12 | > 26 µM (inactive)
O=C1c2cccc3c([N+](=O)[O-])ccc(c23)C(=O)N1O | > 26 µM (inactive)
Cc1ccc(-n2cc(CNCCN3CCOC3=O)c(-c3cccc(C)c3)n2)cc1 | 17.4 µM
O=C(CSc1nnc(-c2cccs2)o1)N1CCCc2ccccc21 | > 26 µM (inactive)
CNc1nc(SC(C)C(=O)Nc2ccc(Cl)c(Cl)c2)nc(N2CCOCC2)n1 (stereo not given) | > 26 µM (inactive)
C=CCC(NCc1ccco1)c1ccc(OC)c(OC)c1 (stereo not given) | > 26 µM (inactive)
Cc1ccc(O)c(CNc2nccs2)c1 | 24.5 µM
CCOc1ncccc1C(=O)NCCc1c[nH]c2ccccc12 | > 26 µM (inactive)
CC(C)n1cc(/C=N/NC(=O)COc2cccc3cccnc23)c2ccccc21 | > 26 µM (inactive)
